Target: Nanoluciferase-BRD9 fusion protein (Homo sapiens (Human), UniProt Q9H8M2)
Assay: SYO1 BRD9 NanoLuc degradation assay
Type: cell-based
Details: Table 5B; SYO-1 cells expressing 3×FLAG-NLuc-BRD9, 6 hours; read-out: SYO1 BRD9-NanoLuc degradation IC50
In short: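 Degradation was read as loss of nanoluciferase signal (Nano-Glo) after 6 h compound exposure in a stable SYO-1 line carrying 3×FLAG-NLuc-BRD9 (8000 cells/well). Normalised between DMSO (high) and a 1 μM known BRD9 degrader (low).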

Chain of Nanoluciferase-BRD9 fusion protein (Q9H8M2 whole entry, the tested form may be a part): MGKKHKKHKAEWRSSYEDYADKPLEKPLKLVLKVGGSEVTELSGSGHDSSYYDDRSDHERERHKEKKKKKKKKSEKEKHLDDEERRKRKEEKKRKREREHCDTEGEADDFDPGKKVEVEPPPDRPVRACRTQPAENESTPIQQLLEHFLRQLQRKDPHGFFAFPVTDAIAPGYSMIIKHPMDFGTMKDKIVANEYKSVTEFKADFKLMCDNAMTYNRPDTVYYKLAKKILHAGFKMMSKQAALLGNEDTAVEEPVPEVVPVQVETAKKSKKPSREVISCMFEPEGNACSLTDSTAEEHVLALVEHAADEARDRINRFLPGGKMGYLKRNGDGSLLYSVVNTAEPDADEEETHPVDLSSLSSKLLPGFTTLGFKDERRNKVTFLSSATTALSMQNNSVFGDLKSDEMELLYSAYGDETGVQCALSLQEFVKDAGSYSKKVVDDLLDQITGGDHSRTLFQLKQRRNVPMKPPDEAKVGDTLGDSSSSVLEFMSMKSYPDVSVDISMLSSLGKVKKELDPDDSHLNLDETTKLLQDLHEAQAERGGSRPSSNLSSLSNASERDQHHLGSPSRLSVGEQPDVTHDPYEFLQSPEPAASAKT

| DC50 | Compound |
| --- | --- |
| < 10 nM | COc1cc(-c2cn(C)c(=O)c3cnccc23)cc(OC)c1CN1CCC(n2cc(COc3ccc4c(c3)C(=O)N(C3CCC(=O)NC3=O)C4=O)nn2)CC1 (stereo not drawn) [Compound D289] |
| < 10 nM | COc1cc(-c2cn(C)c(=O)c3cnccc23)cc(OC)c1CN1CCC(n2cc(COCCOc3ccc4c(c3)C(=O)N(C3CCC(=O)NC3=O)C4=O)nn2)CC1 (stereo not drawn) [Compound D290] |
| < 10 nM | COc1cc(-c2cn(C)c(=O)c3cnccc23)cc(OC)c1CN1CCC(n2cc(COC3CN(c4ccc5c(c4)C(=O)N(C4CCC(=O)NC4=O)C5=O)C3)nn2)CC1 (stereo not drawn) [Compound D291] |
| 100 to 1000 nM | COc1cc(-c2cn(C)c(=O)c3cnccc23)cc(OC)c1CN(C)CCOCCn1cc(CCOc2ccc3c(c2)C(=O)N(C2CCC(=O)NC2=O)C3=O)nn1 (stereo not drawn) [Compound D292] |
| 10 to 100 nM | COc1cc(-c2cn(C)c(=O)c3cnccc23)cc(OC)c1CN(C)CCOCCn1cc(COCCOc2ccc3c(c2)C(=O)N(C2CCC(=O)NC2=O)C3=O)nn1 (stereo not drawn) [Compound D293] |
| 100 to 1000 nM | COc1cc(-c2cn(C)c(=O)c3cnccc23)cc(OC)c1CN(C)CCOCCn1cc(CN2CC(Oc3ccc4c(c3)C(=O)N(C3CCC(=O)NC3=O)C4=O)C2)nn1 (stereo not drawn) [Compound D294] |
| 100 to 1000 nM | COc1cc(-c2cn(C)c(=O)c3cnccc23)cc(OC)c1CN(C)CCOCCn1cc(COC2CN(c3ccc4c(c3)C(=O)N(C3CCC(=O)NC3=O)C4=O)C2)nn1 (stereo not drawn) [Compound D295] |
| < 10 nM | COc1cc(-c2cn(C)c(=O)c3cnccc23)cc(OC)c1CN1CC(n2cc(COc3ccc4c(c3)C(=O)N(C3CCC(=O)NC3=O)C4=O)nn2)C1 (stereo not drawn) [Compound D297] |
| < 10 nM | COc1cc(-c2cn(C)c(=O)c3cnccc23)cc(OC)c1CN1CC(n2cc(CCOc3ccc4c(c3)C(=O)N(C3CCC(=O)NC3=O)C4=O)nn2)C1 (stereo not drawn) [Compound D298] |
| < 10 nM | COc1cc(-c2cn(C)c(=O)c3cnccc23)cc(OC)c1CN1CC(n2cc(COCCOc3ccc4c(c3)C(=O)N(C3CCC(=O)NC3=O)C4=O)nn2)C1 (stereo not drawn) [Compound D299] |
| < 10 nM | COc1cc(-c2cn(C)c(=O)c3cnccc23)cc(OC)c1CN1CC(n2cc(CN3CC(Oc4ccc5c(c4)C(=O)N(C4CCC(=O)NC4=O)C5=O)C3)nn2)C1 (stereo not drawn) [Compound D300] |
| < 10 nM | COc1cc(-c2cn(C)c(=O)c3cnccc23)cc(OC)c1CN1CC(n2cc(COC3CN(c4ccc5c(c4)C(=O)N(C4CCC(=O)NC4=O)C5=O)C3)nn2)C1 (stereo not drawn) [Compound D301] |
| < 10 nM | COc1cc(-c2cn(C)c(=O)c3cnccc23)cc(OC)c1CN1CC(n2cc(COC3CCN(c4ccc5c(c4)C(=O)N(C4CCC(=O)NC4=O)C5=O)CC3)nn2)C1 (stereo not drawn) [Compound D302] |
| 10 to 100 nM | COc1cc(-c2cn(C)c(=O)c3cnccc23)cc(OC)c1Cn1cc(COCCOc2ccc3c(c2)C(=O)N(C2CCC(=O)NC2=O)C3=O)nn1 (stereo not drawn) [Compound D303] |
| < 10 nM | COc1cc(-c2cn(C)c(=O)c3cnccc23)cc(OC)c1CN1CCC(CN2CCC3(CC2)CC(Oc2ccc4c(c2)C(=O)N(C2CCC(=O)NC2=O)C4=O)C3)CC1 (stereo not drawn) [Compound D304] |
| 100 to 1000 nM | COc1cc(-c2cn(C)c(=O)c3cnccc23)cc(OC)c1CN1CC(CCN2CCC3(CC2)CC(Oc2ccc4c(c2)C(=O)N(C2CCC(=O)NC2=O)C4=O)C3)C1 (stereo not drawn) [Compound D305] |
| < 10 nM | COc1cc(-c2cn(C)c(=O)c3cnccc23)cc(OC)c1CN1CC2(CCN(CC#Cc3ccc4c(c3)C(=O)N(C3CCC(=O)NC3=O)C4=O)C2)C1 (stereo not drawn) [Compound D306] |
| < 10 nM | COc1cc(-c2cn(C)c(=O)c3cnccc23)cc(OC)c1CN1CC2(CCN(CC#Cc3ccc4c(c3)C(=O)N(C3CCC(=O)NC3=O)C4=O)CC2)C1 (stereo not drawn) [Compound D307] |
| < 10 nM | COc1cc(-c2cn(C)c(=O)c3cnccc23)cc(OC)c1CN1CCC2(CC1)CCN(CC#Cc1ccc3c(c1)C(=O)N(C1CCC(=O)NC1=O)C3=O)C2 (stereo not drawn) [Compound D308] |
| 10 to 100 nM | COc1cc(-c2cn(C)c(=O)c3cnccc23)cc(OC)c1CN1CC2(CN(CC#Cc3ccc4c(c3)C(=O)N(C3CCC(=O)NC3=O)C4=O)C2)C1 (stereo not drawn) [Compound D309] |
| < 10 nM | COc1cc(-c2cn(C)c(=O)c3cnccc23)cc(OC)c1CN1CCC2C(C1)CN2CCCC#Cc1ccc2c(c1)C(=O)N(C1CCC(=O)NC1=O)C2=O (stereo not drawn) [Compound D310] |
| 10 to 100 nM | COc1cc(-c2cn(C)c(=O)c3cnccc23)cc(OC)c1CN1CC2(CCN(C(=O)CC#Cc3ccc4c(c3)C(=O)N(C3CCC(=O)NC3=O)C4=O)C2)C1 (stereo not drawn) [Compound D311] |
| < 10 nM | COc1cc(-c2cn(C)c(=O)c3cnccc23)cc(OC)c1CN1CC2(CCN(C(=O)CC#Cc3ccc4c(c3)C(=O)N(C3CCC(=O)NC3=O)C4=O)CC2)C1 (stereo not drawn) [Compound D312] |
| < 10 nM | COc1cc(-c2cn(C)c(=O)c3cnccc23)cc(OC)c1CN1CCC2(CC1)CCN(C(=O)CC#Cc1ccc3c(c1)C(=O)N(C1CCC(=O)NC1=O)C3=O)C2 (stereo not drawn) [Compound D313] |
| 10 to 100 nM | COc1cc(-c2cn(C)c(=O)c3cnccc23)cc(OC)c1CN1CCC2(C1)CN(C(=O)CC#Cc1ccc3c(c1)C(=O)N(C1CCC(=O)NC1=O)C3=O)C2 (stereo not drawn) [Compound D314] |
| < 10 nM | COc1cc(-c2cn(C)c(=O)c3cnccc23)cc(OC)c1CN1CCC2C(C1)CN2C(=O)CC#Cc1ccc2c(c1)C(=O)N(C1CCC(=O)NC1=O)C2=O (stereo not drawn) [Compound D315] |

| DC50 | Compound |
| --- | --- |
| < 10 nM | COc1cc(-c2cn(C)c(=O)c3cnccc23)cc(OC)c1CN1CCN(C(=O)CC#Cc2ccc3c(c2)C(=O)N(C2CCC(=O)NC2=O)C3=O)CC1 (stereo not drawn) [Compound D316] |
| 10 to 100 nM | COc1cc(-c2cn(C)c(=O)c3cnccc23)cc(OC)c1CN1CC2(C1)CN(C(=O)CC#Cc1ccc3c(c1)C(=O)N(C1CCC(=O)NC1=O)C3=O)C2 (stereo not drawn) [Compound D317] |
| < 10 nM | COc1cc(-c2cn(C)c(=O)c3cnccc23)cc(OC)c1CN1CCC2(CC1)CN(C(=O)CC#Cc1ccc3c(c1)C(=O)N(C1CCC(=O)NC1=O)C3=O)C2 (stereo not drawn) [Compound D318] |
| < 10 nM | COc1cc(-c2cn(C)c(=O)c3cnccc23)cc(OC)c1CN1CCC(n2cc([C@@H](C)Oc3ccc4c(c3)C(=O)N(C3CCC(=O)NC3=O)C4=O)nn2)CC1 (stereo partly drawn) [Compound D319] |
| < 10 nM | COc1cc(-c2cn(C)c(=O)c3cnccc23)cc(OC)c1CN1CCC(n2cc([C@H](C)Oc3ccc4c(c3)C(=O)N(C3CCC(=O)NC3=O)C4=O)nn2)CC1 (stereo partly drawn) [Compound D320] |
| < 10 nM | COc1cc(-c2cn(C)c(=O)c3cnccc23)cc(OC)c1CN1CCC(c2nc(COc3ccc4c(c3)C(=O)N(C3CCC(=O)NC3=O)C4=O)cs2)CC1 (stereo not drawn) [Compound D321] |
| < 10 nM | COc1cc(-c2cn(C)c(=O)c3cnccc23)cc(OC)c1CN1CCC(c2cc(COc3ccc4c(c3)C(=O)N(C3CCC(=O)NC3=O)C4=O)on2)CC1 (stereo not drawn) [Compound D322] |
| < 10 nM | COc1cc(-c2cn(C)c(=O)c3cnccc23)cc(OC)c1CN1CCC(n2ccc(COc3ccc4c(c3)C(=O)N(C3CCC(=O)NC3=O)C4=O)n2)CC1 (stereo not drawn) [Compound D323] |
| < 10 nM | COc1cc(-c2cn(C)c(=O)c3cnccc23)cc(OC)c1CN1CCC(n2cc(COc3ccc4c(c3)C(=O)N(C3CCC(=O)NC3=O)C4=O)cn2)CC1 (stereo not drawn) [Compound D324] |
| < 10 nM | COc1cc(-c2cn(C)c(=O)c3cnccc23)cc(OC)c1CN1CCC(c2nc(COc3ccc4c(c3)C(=O)N(C3CCC(=O)NC3=O)C4=O)co2)CC1 (stereo not drawn) [Compound D325] |
| < 10 nM | COc1cc(-c2cn(C)c(=O)c3cnccc23)cc(OC)c1CN1CCC(c2ncc(COc3ccc4c(c3)C(=O)N(C3CCC(=O)NC3=O)C4=O)o2)CC1 (stereo not drawn) [Compound D326] |
| < 10 nM | COc1cc(-c2cn(C)c(=O)c3cnccc23)cc(OC)c1CN1CC(N2CCN(c3ccc4c(c3)C(=O)N(C3CCC(=O)NC3=O)C4=O)CC2)C1 (stereo not drawn) [Compound D327] |
| < 10 nM | COc1cc(-c2cc(C(F)(F)F)c(=O)n(C)c2)cc(OC)c1CN1CCC(CCN2CCN(c3ccc4c(c3)C(=O)N(C3CCC(=O)NC3=O)C4=O)CC2)CC1 (stereo not drawn) [Compound D328] |
| < 10 nM | COc1cc(-c2cc(C)c(=O)n(C)c2)cc(OC)c1CN1CCC(CCN2CCN(c3ccc4c(c3)C(=O)N(C3CCC(=O)NC3=O)C4=O)CC2)CC1 (stereo not drawn) [Compound D329] |
| < 10 nM | COc1cc(-c2cc(C)c(=O)n(C)c2)cc(OC)c1CN1CCN(c2ccc3c(c2)C(=O)N(C2CCC(=O)NC2=O)C3=O)CC1 (stereo not drawn) [Compound D330] |
| < 10 nM | COc1cc(-c2cc(C)c(=O)n(C)c2)cc(OC)c1CN1CCC2(CC1)CN(c1ccc3c(c1)C(=O)N(C1CCC(=O)NC1=O)C3=O)C2 (stereo not drawn) [Compound D331] |
| < 10 nM | COc1cc(-c2cc(C)c(=O)n(C)c2)cc(OC)c1CN1CCC2(CC1)CC(Oc1ccc3c(c1)C(=O)N(C1CCC(=O)NC1=O)C3=O)C2 (stereo not drawn) [Compound D332] |
| < 10 nM | COc1cc(-c2cc(C)c(=O)n(C)c2)cc(OC)c1CN1CCC(n2cc([C@H](C)Oc3ccc4c(c3)C(=O)N(C3CCC(=O)NC3=O)C4=O)nn2)CC1 (stereo partly drawn) [Compound D333] |
| > 1000 nM | COc1cc(-c2cc(C)c(=O)n(C)c2)cc(OC)c1CN1CCC(CCN2CCN(C3CCC(=O)NC3=O)C(=O)C2)CC1 (stereo not drawn) [Compound D334] |
| < 10 nM | COc1cc(-c2cc(C)c(=O)n(C)c2)cc(OC)c1CN1CC(C#Cc2ccc3c(c2)C(=O)N(C2CCC(=O)NC2=O)C3=O)C1 (stereo not drawn) [Compound D335] |
| < 10 nM | COc1cc(-c2cc(C)c(=O)n(C)c2)cc(OC)c1CN1CCC2(CCN(c3ccc4c(c3)C(=O)N(C3CCC(=O)NC3=O)C4=O)C2)C1 (stereo not drawn) [Compound D336] |
| < 10 nM | COc1cc(-c2cc(C)c(=O)n(C)c2)cc(OC)c1CN1CCC2(C1)CN(c1ccc3c(c1)C(=O)N(C1CCC(=O)NC1=O)C3=O)C2 (stereo not drawn) [Compound D337] |
| < 10 nM | COc1cc(-c2cc(C)c(=O)n(C)c2)cc(OC)c1CN1CCC2C(C1)CN2c1ccc2c(c1)C(=O)N(C1CCC(=O)NC1=O)C2=O (stereo not drawn) [Compound D338] |
| < 10 nM | COc1cc(-c2cc(C)c(=O)n(C)c2)cc(OC)c1CN1CCC2CN(c3ccc4c(c3)C(=O)N(C3CCC(=O)NC3=O)C4=O)C21 (stereo not drawn) [Compound D339] |
| < 10 nM | COc1cc(-c2cn(C)c(=O)c3[nH]ccc23)cc(OC)c1CN1CCC2(CC1)CN(c1ccc3c(c1)C(=O)N(C1CCC(=O)NC1=O)C3=O)C2 (stereo not drawn) [Compound D340] |

Reference: patent publication US11414416B1, “Compounds and uses thereof” (Foghorn Therapeutics Inc., priority 2019, dated 2022)
